Source: patent publication US6809083B1, “Use of N-substituted-1, 5-dideoxy-1, 5-imino-D-glucitol compounds for treating hepatitis virus infections” (priority 1998, dated 2004)

Legend:
Hepatitis B Virus [1] = assay: Hepatitis B virus secretion from chronically HBV secreting HepG2.2.15 cells (preS1 immunoprecipitation of virions, PCR of viral DNA); type: cell-based; settings: 3 days incubation
Procedure: (§1) The anti-hepatitis B virus activity and effect on cell viability of a number of different N-substituted-1,5-dideoxy-1,5-imino-D-glucitol compounds were assessed using an in vitro assay employing chronically hepatitis B virus secreting HepG2.2.15 cells. The method employed was essentially that described in Block et al. (1994) Proc. Natl. Acad. Sci. USA 91:2235-2239.

HepG2.2.15 cells = assay: Viability of HepG2.2.15 cells, trypan blue exclusion; type: cell-based; settings: [200] and [1000]; trypan blue staining not performed
Procedure: as §1

Hepatitis B Virus [2] = assay: IC-90 of N-nonyl-DNJ (T. Block and G. Jacob, unpublished observation); type: cell-based
Procedure: The anti-hepatitis B virus effect of (−)-2′-deoxy-3′-thiocytidine-5′-triphosphate (3TC) alone and in combination with N-nonyl-DNJ was determined according to Korba ((1996) Antiviral Research 29(1):49-51), using the “combostat” strategy (Comstat Program, Combostat Corp., Duluth, Minn.). The combostat method involves serially diluting the IC-90 of each compound. The IC-90 of N-nonyl-DNJ has been determined to be between 4 and 10 μg/ml (T. Block and G. Jacob, unpublished observation). The accepted IC-90 for 3TC in HepG 2.2.15 (2.2.15) cells is 300 nM to 500 nM (Doong et al. (1991) Proc. Natl. Acad. Sci. USA 88:8495-8499).

[3] = system: woodchuck hepatitis virus (WHV); assay: Woodchuck model, N-nonyl-DNJ monotherapy, BID oral dosing for 4 weeks; total HBV DNA and IPDNA by quantitative PCR; type: in vivo
Description: In order to evaluate the efficacy of N-nonyl-DNJ in combination with 3TC (or other nucleoside or nucleotide analogs) against Hepatitis B virus in a woodchuck animal model, an monotherapy experiment using N-nonyl-DNJ alone was first conducted. This was necessary to determine if N-nonyl-DNJ has any anti-HBV effect in the woodchuck and, if N-nonyl-DNJ has a beneficial effect, to design a combination study based on the dose-response relationship of this drug alone.
Therefore, five groups of four animals each (all groups had both sexes, all but the control had two of each sex) were assigned to 0, 12.5, 25, 50, and 100 mg/kg/day with BID oral dosing. These were lab-reared wild animals. All animals were infected with woodchuck hepatitis virus (WHV) as neonates, and had been tested positive on serological tests for WHV surface antigen. Blood samples were drawn one week prior to dosing (−1 week), immediately before dosing (0 weeks), weekly during dosing (1, 2, 3, and 4 weeks), and after the end of dosing (5, 6, 8, and 10 weeks).
There are two measures of drug efficacy: reduction in total HBV DNA (measured by quantitative PCR), and reduction in HBV DNA from capsids with intact surface glycoproteins, which is the active form of the virus (measured by an ELISA-like immune precipitation assay followed by quantitative PCR).
Before models are fitted to the data, a log transform was applied because: 1) the variation in IPDNA increases with increasing IPDNA values; the log transformation gives values with a nearly constant variation, and 2) it is expected that drug effects will appear as a constant multiplier of the IPDNA level. Because there are zero values of IPDNA, a small value (about 1/2 of the smallest non-zero value) was added to all values before the log transform.
Two approaches were used to model the changes in slope to week with dose of N-nonyl-DNJ: a linear modeling approach and a nonlinear model. Both approaches assume that the (linear) rate of change of the Log(IPDNA) measure over the dosing period is the “right” measure to reflect the effect of the drug on the virus. Both approaches are fit in stages, and the first stage is common to both approaches. First, a simple straight line regression model is fit using weeks 0-4 to predict log(IPDNA+10) separately for each animal by run combination. In the second stage, the response variable is the slope fitted in the first stage.
For the linear approach, a model is fit with slope to week as the response where run is considered a block, dose has a significant effect (almost all of this effect is due to a slope to dose), and the relevant error for testing the effect of dose is the variation among animals treated alike (after the adjustment for the runs as blocks). This is similar to using the calibration data within each run to first adjust each run's data to a common virus DNA concentration; the difference is that here the data from the woodchucks are used for the run adjustment rather than only the calibration data.
For the nonlinear approach, a four parameter logistic model is fit with the slope to week as the response and the dose as the predictor. Again, run is considered a block, but because no run has all weeks, it is not possible to fully reflect the blocking in the nonlinear approach. […] The average maximum slope observed was 2.71 additional Log(IPDNA μg/mL)/week, or an increase of about 150%/week, the average minimum slope observed with N-nonyl-DNJ is 0.31 fewer Log(IPDNA μg/mL)/week), or about a decrease of about 25%/week. The slopes, the fitted model, the parameter estimates from the model, and the approximate standard errors for these parameters are all shown in FIG. 3. […] Whether in woodchucks or humans, the effective dose of both the N-alkyl-DNJ and nucleoside or nucleotide antiviral agent administered in combination therewith can be administered in two equal daily subdoses (i.e., B.I.D.).

[4] = concentration [200] (unit not given)
[5] = concentration [1000] (unit not given)

Structure (SMILES)	Relative amount of HBV secreted, as a % of control (Hepatitis B Virus [1]; [4])	Relative amount of HBV secreted, as a % of control (Hepatitis B Virus [1]; [5])	Appearance of cells by gross microscopic examination (HepG2.2.15 cells)	IC90 (Hepatitis B Virus [2]) [µg/mL]	effect on total HBV DNA measurements ([3]; woodchuck, all dose levels, pre-dose and dosed portions of the study)	average minimum slope observed ([3]; woodchuck, weeks 0-4)	decrease of IPDNA corresponding to average minimum slope ([3]; woodchuck, weeks 0-4)	increase of IPDNA corresponding to average maximum slope ([3]; woodchuck, weeks 0-4)	average maximum slope observed ([3]; woodchuck, weeks 0-4, upper end of dose-response model)	approximate effective monotherapy dose ([3]; woodchucks, oral)
CCC(CC)CN1C[C@H](O)[C@@H](O)[C@H](O)[C@H]1CO [Compound 3, N-(2-ethylbutyl)-1,5-dideoxy-1,5-imino-D-glucitol]	45.0 +/− 30 (n = 3) % of control	5.0 +/− 20 (n = 3) % of control	^5Although trypan blue viability staining was not performed, cells appeared unremarkable (healthy) by gross microscopic examination.							
CCCCCCCCCN1C[C@H](O)[C@@H](O)[C@H](O)[C@H]1CO [Compound 1, N-(n-nonyl)-1,5-dideoxy-1,5-imino-D-glucitol]				4 to 10	no effect	0.31 fewer Log(IPDNA μg/mL)/week	about 25 %/week	about 150 %/week	2.71 additional Log(IPDNA μg/mL)/week	about 16 mg/kg/day
CCCCN1C[C@H](O)[C@@H](O)[C@H](O)[C@H]1CO [NBDNJ, N-(n-butyl-)-1,5-dideoxy-1,5-imino-D-glucitol, reference compound]	37.0 +/− 13 (n = 15) % of control	3.2 +/− 5 (n = 15) % of control								
